Measured values taken from patent US9732079B2, “Yellow reduced pyrroloquinoline quinone crystal and method of producing the same, and food, pharmaceutical, gel, composition and method of producing composition” (Mitsubishi Gas Chemical Company, Inc., priority 2013, dated 2017).

Legend:
Assay type in all cases: physicochemical
[1] = Test on solubility in ethanol; conditions: 40 mg in ethanol 2 mL, ultrasonically treated one minute, room temperature 30 minutes or more, absorbance at 330 nm
Procedure: [Test on Solubility in Ethanol]
(§1) The crystal (40 mg) obtained in Example 1 was added to ethanol (2 mL), and was ultrasonically treated for one minute. The solution was left at room temperature for 30 minutes or more, and thereafter the resulting precipitate was centrifuged and the resulting supernatant was diluted with dimethyl sulfoxide to analyze the concentration at an absorbance at 330 nm.
as §1, with “2” for “1”
as §1, with “obtained in Comparative Example 1” for “obtained in Example 1”, “330 nm. The concentration was 1.4 mg/ML.” for “330 nm.”

[2] = Test on solubility in water; conditions: 30 mg in water 1 mL, ultrasonically treated one minute, room temperature 30 minutes or more, absorbance at 310 nm
Procedure: [Test on Solubility in Water]
as §1, with “(30” for “(40”, “water (1” for “ethanol (2”, “water” for “dimethyl sulfoxide”, “310” for “330”, “nm. The concentration was 0.13 mg/mL.” for “nm.”
as §1, with “(30” for “(40”, “2” for “1”, “water (1” for “ethanol (2”, “water” for “dimethyl sulfoxide”, “310” for “330”, “nm. The concentration was 0.14 mg/mL.” for “nm.”
The solid (30 mg) obtained in Comparative Example 1 was added to water (1 mL), and was ultrasonically treated for one minute. The solution was left at room temperature for 30 minutes or more, and thereafter the resulting precipitate was centrifuged and the resulting supernatant was diluted with water to analyze the concentration at an absorbance at 310 nm. The concentration was 0.019 mg/mL.

[3] = Dispersibility in ethanol: gelation test; conditions: for Homogeneity of ethanol mixture (upper and lower portions) / Appearance of ethanol mixture after standing: 20 mg in ethanol 2 mL; for Homogeneity of ethanol mixture (upper and lower portions): left at 20° C. for two to three hours; for Appearance of ethanol mixture after standing: ultrasonically treated one minute, left at 20° C. for two hours; for Appearance after adding ethanol mixture to water: 20 μL of gelled product / ethanol mixture added to water 1 mL
Procedure: [Dispersibility in Ethanol: Gelation Test]
The crystal (20 mg) obtained in Example 1 was added to ethanol (2 mL), and was ultrasonically treated for one minute. […] The gelled product was generated through the following process: the reduced PQQ crystals according to the present invention turned into fibers, and alcohol was encapsulated between these fibers in the form of a net to generate a gel.
The solid (20 mg) obtained in Comparative Example 1 was added to ethanol (2 mL), and was ultrasonically treated for one minute.

[4] = Test on stability of crystal (dispersed in water); conditions: 0.2 g mixed with water 1 mL, room temperature
Procedure: [Test on Stability of Crystal (Dispersed in Water)]
The crystal (0.2 g) obtained in Example 1 was mixed with water (1 mL).
The solid (0.2 g) obtained in Comparative Example 1 was mixed with water (1 mL).
The crystal (0.2 g) obtained in Comparative Example 2 was mixed with water (1 mL).

Solubility in ethanol (concentration of supernatant) [1] [µg/mL] | Solubility in water (concentration of supernatant) [2] [µg/mL] | Dispersibility (overall conclusion) ([3]; ethanol gelation test, compared with Comparative Example 1) | Appearance dispersed in water after one hour [4] | Compound | Homogeneity of ethanol mixture (upper and lower portions) [3] | Appearance of ethanol mixture after standing [3] | Appearance after adding ethanol mixture to water [3] | Appearance dispersed in water after two days [4]
3200 | 140 | – | – | O=C(O)c1cc(C(=O)O)c2c(n1)c(O)c(O)c1cc(C(=O)O)[nH]c12 [Example 2, reduced pyrroloquinoline quinone] | – | – | – | –
8500 | 130 | significantly high dispersibility | yellow homogenous dispersion | O=C(O)c1cc(C(=O)O)c2c(n1)c(O)c(O)c1cc(C(=O)O)[nH]c12 [Example 1, reduced pyrroloquinoline quinone] | homogenous without any difference between upper and lower portions | orange gelled product | yellow homogenous dispersion | the dispersion remained the same
– | – | – | dark red dispersion | O=C(O)c1cc(C(=O)O)c2c(n1)c(O)c(O)c1cc(C(=O)O)[nH]c12 [Comparative Example 2, reduced pyrroloquinoline quinone] | – | – | – | a black precipitate was generated and the solution was not homogenous

Compound | Solubility in ethanol (concentration of supernatant) [1] [µg/mL] | Solubility in water (concentration of supernatant) [2] [µg/mL] | Dispersibility (overall conclusion) ([3]; ethanol gelation test, compared with Comparative Example 1) | Appearance dispersed in water after one hour [4] | Homogeneity of ethanol mixture (upper and lower portions) [3] | Appearance of ethanol mixture after standing [3] | Appearance after adding ethanol mixture to water [3] | Appearance dispersed in water after two days [4]
O=C(O)c1cc(C(=O)O)c2c(n1)c(O)c(O)c1cc(C(=O)O)[nH]c12 [Comparative Example 1, reduced pyrroloquinoline quinone] | 1400 | 19 | – | a solution having a black solid sedimented therein | had a difference between the upper and lower portions | a black solid was sedimented and the solution was slightly yellowed | a solution having a black solid sedimented therein | –
